Experimental data published in patent US20220105096A1, “INHIBITORS OF HUMAN IMMUNODEFICIENCY VIRUS REPLICATION” (ViiV HEALTHCARE UK (NO.5) LIMITED, priority 2019, published 2022).

How the values were obtained:
[1] = Pharmacokinetic parameters in vivo, monkey; set-up: species or system Cynomolgus monkeys
Protocol: PK was investigated in male CD1 mice, Wistar Han Rats, Cynomolgus monkeys, and Beagle Dogs. Two groups of animals (N=3 per group) received test compound either as an intravenous (IV) dose (1 mg/kg) or by oral gavage (5 mg/kg solution and suspension). Drug was formulated in 90% PEG 400, 10% ethanol for IV administration and in 90% PEG400, 5% ethanol for PO administration. Blood samples were collected at 0.167, 0.25, 0.5, 0.75, 1, 2, 3, 5, 7, 24, 48, 72 and 96 h post dose for IV; 0.25, 0.5, 0.75, 1, 2, 3, 5, 7, 24, 48, 72 and 96 h post dose for oral. Blood samples were collected into K3EDTA tubes and centrifuged at 1500 to 2000×g to obtain plasma. Plasma samples were stored at −20° C. until analysis by LC-MS/MS. All […] samples were injected on an Exion LC 4500 Triple Quad™ LC-MS/MS system. The analytical column used was a Phenomenex C18 (C18, 4.6 mm×50 mm, 5 μm) maintained at room temperature. Mobile Phase A consisted of 0.1% (v/v) formic acid in MilliQ water. Mobile Phase B consisted of 100% methanol. The flow rate was 1 mL/min. […] All LC-MS/MS analysis parameters are captured electronically in the raw data files. The PK parameters were obtained by non-compartmental analysis of plasma concentration vs time data (Phoenix WinNonlin v8). The peak concentration (Cmax) and time for Cmax (Tmax) were recorded directly from experimental observations. The area under the curve from time zero to the last sampling time [AUC0-T] and the area under the curve from time zero to infinity [AUCINF] were calculated using a combination of linear and log trapezoidal summations. The total plasma clearance (CLTp), steady-state volume of distribution (Vss), apparent elimination half-life (T-HALF), and mean residence time (MRT) were estimated after IV administration. Estimations of AUC and T-HALF were made using a minimum of three timepoints with quantifiable concentrations. The absolute oral bioavailability (F) was estimated as the ratio of dose-normalized AUC values following oral and IV doses.

[2] = Metabolism in monkey liver microsomes; assay type: in vitro ADME
Protocol: Liver microsomes from human, rat dog and monkey were thawed and diluted to a final concentration of 1 mg/mL in 100 mM potassium phosphate buffer (pH 7.4). Test compounds and controls were prepared at 100× final concentration of 1 μM in 1:1 acetonitrile:water (v/v) and aliquoted into microsomal mixture. The mixture was preincubated at 37° C. in a shaking water bath for 10 minutes. The incubations were performed in duplicate. Three controls were included in the incubations; warfarin, phenacetin, and verapamil. After the preincubation, the reaction was initiated with NADPH at a final concentration of 1 mM. At 0, 5, 15, 30, 45 and 60 minutes, 25 μL of sample was removed and quenched with 300 μL of acetonitrile containing internal standard (Telmisartan). The samples were vortexed for 5 minutes at 1200 rpm and then centrifuged at 4000 rpm for 10 min. A 100 μL aliquot of supernatant was diluted three-fold with water and injected on an Exion LC 4500 Triple Quad LC-MS/MS system. Results were reported as a percentage of parent remaining and was calculated from peak area ratios of test compound remaining after at each time point and compared to time zero incubation.

[3] = tested on: human hepatocytes; experiment: Metabolism in human hepatocytes; assay type: in vitro ADME; conditions: 0.5 μM
Protocol: Cryopreserved hepatocytes in suspension from human, monkey, dog, rat and mouse were thawed and diluted in pre-warmed William's Medium E (pH 7.4). Aliquots of the hepatocyte suspension were added to test compound working solutions prepared in pre-warmed William's Medium E (pH 7.4) to achieve final concentrations of 0.5 μM in 0.5×10^6 cells per milliliter and ≤0.25% DMSO. These samples were incubated at 37° C. with 5% carbon dioxide and shaking. The incubations were performed in singlet. At time points 0, 10, 30, 60, 120 and 240 minutes, a 50 μL aliquot of the incubation mixtures was removed and added to a 100 μL solution of acetonitrile containing internal standard and the mixture was then centrifuged at 4° C. and 3500 rpm for 15 minutes. Following completion of the experiment, samples were analyzed by LC-MS/MS. Metabolic stability results were reported as a percentage of parent test compound remaining. This percentage is calculated by dividing the LCMS peak area of test compound following incubation (tx) by the LCMS peak area of test compound at time-zero (t0) just prior to incubation.
The elimination rate constant (k, min^−1) is calculated using nonlinear regression fitting with the following equation: […]
where: C0 is the initial concentration represented as the peak area ratio (test compound peak area/internal standard peak area); Ct is the concentration at t represented as the area ratio (test compound peak area/internal standard peak area); e is the base of the natural logarithm t is the time (min); k is the elimination rate constant (min^−1). The half-life (t1/2, min) is calculated using the following equation: […]
where: k is the elimination rate constant (min^−1). The in vitro intrinsic clearance (CLint, mL/min/million cells) is calculated using the following equation: […]
where: t1/2 is the half-life; n is the number of cells per mL.

[4] = cynomolgus monkey, plasma, Monkey, IV 1 mg/kg

Cn1nc(NS(C)(=O)=O)c2c(Cl)ccc(-n3c([C@H](Cc4cc(F)cc(F)c4)NC(=O)Cn4nc(C(F)F)c5c4C(F)(F)[C@@H]4C[C@H]54)nc4nc(OCCC(C)(F)F)ccc4c3=O)c21 (atropisomer, axis not shown; (P)) [Example 1, N—((S)-1-((3P)-3-(4-chloro-1-methyl-3-(methylsulfonamido)-1H-indazol-7-yl)-7-(3,3-difluorobutoxy)-4-oxo-3,4-dihydropyrido[2,3-d]pyrimidin-2-yl)-2-(3,5-difluorophenyl)ethyl)-2-((3bS,4aR)-3-(difluoromethyl)-5,5-difluoro-3b,4,4a,5-tetrahydro-1H-cyclopropa[3,4]cyclopenta[1,2-c]pyrazol-1-yl)acetamide]
clearance [1, 4]: 8.8 mL/min/kg | half-life [1, 4]: 4.2 h | Vd ([1]; cynomolgus monkey, plasma, Monkey, IV 1 mg/kg, read-out: Vss): 1.73 L/kg | bioavailability ([1]; cynomolgus monkey, plasma, Monkey, oral gavage 5 mg/kg solution vs IV 1 mg/kg): 7.92% | half-life in circulation higher than Example 60.2 ([1]; monkey): three-fold | clearance improved relative to Example 60.2 ([1]; monkey, IV): 2.5 fold | stability in monkey liver microsomes relative to Example 60.2 ([2]; Example 1 versus Example 60.2): at least two times more stable | half-life at 1 μM ([2]; monkey, liver microsomes, pH 7.4, 1 μM compound, 1 mg/mL microsomes, NADPH, 37° C., read-out: Monkey liver microsome T1/2): > 2 h | intrinsic clearance in human hepatocytes [3]: less than 0.2 mL/min/g liver | half-life in human hepatocytes ([3]; 0.5×10^6 cells per milliliter): could not be measured | parent remaining after incubation in human hepatocytes ([3]; 240 minute incubation): no metabolism was measurable
